Assay results from PubChem BioAssay (NCI).
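Exposure lasted 48 hours, with cells grown in 96-well plates and compounds tested at five concentrations. TGI is the concentration that stops growth completely.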

Columns and labels:
Experiment in all cases: growth of human tumour cells (NCI), 48 h
NCI-H522 lung = test system: NCI-H522 lung
SW-620 colon = test system: SW-620 colon
COLO 205 colon = test system: COLO 205 colon
A549 NSCLC = test system: A549 NSCLC
MDA-MB-435 = test system: MDA-MB-435
MOLT-4 leukemia = test system: MOLT-4 leukemia
UO-31 renal = test system: UO-31 renal
OVCAR-3 ovarian = test system: OVCAR-3 ovarian
CAKI-1 renal = test system: CAKI-1 renal
U251 CNS = test system: U251 CNS
HCT-116 colon = test system: HCT-116 colon
786-0 renal = test system: 786-0 renal

Row | Compound | TGI (NCI-H522 lung) [µM] | TGI (SW-620 colon) [µM] | TGI (COLO 205 colon) [µM] | TGI (A549 NSCLC) [µM] | TGI (MDA-MB-435) [µM] | TGI (MOLT-4 leukemia) [µM] | TGI (UO-31 renal) [µM] | TGI (OVCAR-3 ovarian) [µM] | TGI (CAKI-1 renal) [µM] | TGI (U251 CNS) [µM] | TGI (HCT-116 colon) [µM] | TGI (786-0 renal) [µM]
1 | CCOC(=O)c1ccc(-c2onc(C)c2Br)[nH]1 | > 100 | > 100 | > 100 | > 100 | > 100 | > 100 | > 100 | > 100 | > 100 | > 100 | > 100 | > 100
2 | CC(=O)N1N=C(c2ccccc2)NC(=O)C1c1cc(C)c(O)c(C)c1 (configuration not stated) | 37 | > 100 | > 100 | 66.1 | > 100 | > 100 | 48.9 | 36.7 | > 100 | 35 | 54.1 | 31.7
3 | O=C1c2cccnc2S(=O)(=O)N1c1ccc(Br)cc1 | > 100 | > 100 | > 100 | > 100 | > 100 | > 100 | > 100 | > 100 | > 100 | > 100 | > 100 | > 100
4 | CCCCCCCCCCCCCOCCOCCOCCCCC(O)CCCCCCCCCC1=C[C@H](C)OC1=O (some centres not stated) | 16.7 | 76.9 | 52.3 | 36.9 | 57.1 | 37.2 | 44.4 | 44.2 | 44.4 | 42.2 | 33.4 | 49.2
5 | COc1cc(OC)c(-n2[nH]c(=O)n(C)c2=O)c(OC)c1 | > 100 | > 100 | > 100 | > 100 | > 100 | > 100 | > 100 | > 100 | > 100 | > 100 | > 100 | > 100
6 | Nc1nc(N)c2cc(-c3cc4ccccc4[nH]3)ccc2n1 | 42.4 | 90.3 | 24 | > 100 | 38.6 | 53.1 | 32.9 | > 100 | 94.9 | > 100 | > 100 | 49.6
